Results published in patent US20210395313A1, “PEPTIDE PAC1 ANTAGONISTS” (AMGEN INC., priority 2017, published 2021).
Where a SMILES comes first, the peptide text is derived from it. Bridges are numbered along the chain shown (N, C = ends). Where no end group is shown, it is not given here.

Assays:
human PAC1 receptor = target: T1, human PAC1 receptor (Homo sapiens, UniProt P41586); experiment: LANCE Ultra cAMP accumulation antagonist assay in SHSY-5Y cells; assay type: cell-based;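 further: inhibition of cAMP accumulation evoked by PAC1 agonist at its EC80 in SHSY-5Y cells endogenously expressing receptor, 30 min preincubation then 15 min agonist, TR-FRET readout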
T1 construct: SHSY-5Y (human neuroblastoma cell line) and RG-2 (rat glioma cell line) cells endogenously express human and rat PAC1 receptors, respectively; endogenous in cells; host or cells: SHSY-5Y human neuroblastoma cells
T1 sequence (P41586 21-468): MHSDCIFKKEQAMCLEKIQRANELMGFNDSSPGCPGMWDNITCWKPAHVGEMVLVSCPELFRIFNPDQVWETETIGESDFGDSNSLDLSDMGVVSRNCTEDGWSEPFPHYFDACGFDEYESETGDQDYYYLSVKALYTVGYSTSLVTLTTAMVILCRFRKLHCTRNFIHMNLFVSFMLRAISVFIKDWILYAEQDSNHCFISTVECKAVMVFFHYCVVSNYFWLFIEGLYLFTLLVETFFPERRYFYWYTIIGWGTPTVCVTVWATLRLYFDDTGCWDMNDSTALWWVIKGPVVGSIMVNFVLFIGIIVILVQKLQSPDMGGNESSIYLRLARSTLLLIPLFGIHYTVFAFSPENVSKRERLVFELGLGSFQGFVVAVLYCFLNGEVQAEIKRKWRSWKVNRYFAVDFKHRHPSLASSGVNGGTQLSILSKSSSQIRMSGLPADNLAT

rat PAC1 receptor = target: T2, rat PAC1 receptor (Rattus norvegicus, UniProt P32215); experiment: LANCE Ultra cAMP accumulation antagonist assay in RG-2 cells; assay type: cell-based;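 further: RG-2 rat glioma cells endogenously expressing PAC1, test peptide preincubated 30 min, then PAC1 agonist added at its EC80 for 15 min, cAMP accumulation read by LANCE Ultra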
T2 construct: SHSY-5Y (human neuroblastoma cell line) and RG-2 (rat glioma cell line) cells endogenously express human and rat PAC1 receptors, respectively; endogenous in cells; host or cells: RG-2 rat glioma cells
T2 sequence (P32215 20-523): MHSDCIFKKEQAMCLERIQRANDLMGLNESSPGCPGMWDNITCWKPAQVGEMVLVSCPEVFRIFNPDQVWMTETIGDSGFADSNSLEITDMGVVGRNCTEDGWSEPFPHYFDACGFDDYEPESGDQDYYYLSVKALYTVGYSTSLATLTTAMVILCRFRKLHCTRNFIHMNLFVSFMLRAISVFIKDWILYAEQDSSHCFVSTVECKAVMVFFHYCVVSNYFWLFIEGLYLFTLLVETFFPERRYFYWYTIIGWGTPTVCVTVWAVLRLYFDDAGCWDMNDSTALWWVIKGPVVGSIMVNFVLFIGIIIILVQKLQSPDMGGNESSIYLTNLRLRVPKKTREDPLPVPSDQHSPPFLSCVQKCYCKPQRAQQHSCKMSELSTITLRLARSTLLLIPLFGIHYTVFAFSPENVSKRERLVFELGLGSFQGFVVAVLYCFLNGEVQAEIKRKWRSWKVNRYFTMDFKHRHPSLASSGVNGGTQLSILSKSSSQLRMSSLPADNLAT

Compound | IC50 (human PAC1 receptor) [nM] | IC50 (rat PAC1 receptor) [nM]
CC[C@H](C)[C@H](NC(=O)[C@H](C)NC(=O)[C@H](CCCCN)NC(=O)[C@H](CCCNC(=N)N)NC(=O)[C@H](Cc1ccccc1)NC(=O)[C@H](CCC(N)=O)NC(=O)[C@@H]1CSSC[C@H](N)C(=O)N[C@@H](CC(=O)O)C(=O)N[C@@H](C)C(=O)N[C@@H]([C@@H](C)O)C(=O)N1)C(=O)N[C@@H](CC(=O)O)C(=O)N[C@@H](CC(=O)O)C(=O)N[C@H]1CSSC[C@@H](C(=O)N[C@@H](CCSC)C(=O)N[C@@H](CCCCN)C(=O)N[C@@H](CCC(N)=O)C(=O)N[C@@H](CCCCN)C(=O)N[C@@H](CCCCN)C(=O)N[C@@H](CCCCN)C(=O)N[C@@H](CCC(=O)O)C(=O)N[C@@H](Cc2ccccc2)C(=O)N[C@@H](CCCCN)C(N)=O)NC(=O)[C@H](CCC(=O)O)NC(=O)[C@H](CCCCN)NC(=O)[C@H](Cc2ccccc2)NC(=O)[C@H](CO)NC(=O)[C@H](CC(N)=O)NC(=O)[C@H](CO)NC(=O)[C@H](Cc2c[nH]cn2)NC(=O)[C@H](Cc2c[nH]cn2)NC(=O)[C@H](C)NC(=O)[C@H](CCC(N)=O)NC(=O)[C@H](CCCCN)NC(=O)[C@H](CC(=O)O)NC1=O [compound 222] | < 0.01 | 1 to 100
CDATCQFRKAIDDCHLLAWHSNVPGSVFKACMKQKKKEFKAG-NH2 (disulfide 1-5, 14-31) [compound 76] | 0.01 to 1 | 0.01 to 1
CDATCQFRKAIDDCDRQAHHSNVPGSVFKACMKQKKKEWKAG (disulfide 1-5, 14-31) [compound 81] | 1 to 100 | 0.01 to 1
CDATCQFRKAIDDCWMLSWHANVPGSVFKACMKQKKKEFKAG-NH2 (disulfide 1-5, 14-31) [compound 92] | 0.01 to 1 | 0.01 to 1
CDATCQFRKAIDDCFTWSWHSNVPGSVFKACMKQKKKEFKAG-NH2 (disulfide 1-5, 14-31) [compound 135] | 0.01 to 1 | 0.01 to 1
CDATCQFRKAIDDCVRQAHHSNVPGSVFKACMKQKKKEWKAG-NH2 (disulfide 1-5, 14-31) [compound 79] | 0.01 to 1 | < 0.01
CDATCQFRKAIDDCARQAHHSNVPGSVFKACFKQKKKEWKAGH (disulfide 1-5, 14-31) [compound 39] | 0.01 to 1 | 0.01 to 1
CDATCQFRKAIDDCVKQAHHSNVPGSVFKACMKQKKKEFKAGY (disulfide 1-5, 14-31) [compound 48] | 0.01 to 1 | 0.01 to 1
CDATCQFRKAIDDCIFWAAHSNVPGSVFKACMKQKKKEFKAG-NH2 (disulfide 1-5, 14-31) [compound 123] | 0.01 to 1 | 0.01 to 1
CC[C@H](C)[C@H](NC(=O)[C@H](C)NC(=O)[C@H](CCCCN)NC(=O)[C@H](CCCNC(=N)N)NC(=O)[C@H](Cc1ccccc1)NC(=O)[C@H](CCC(N)=O)NC(=O)[C@@H]1CSSC[C@H](N)C(=O)N[C@@H](CC(=O)O)C(=O)N[C@@H](C)C(=O)N[C@@H]([C@@H](C)O)C(=O)N1)C(=O)N[C@@H](CC(=O)O)C(=O)N[C@@H](CC(=O)O)C(=O)N[C@H]1CSSC[C@@H](C(=O)N[C@@H](CCSC)C(=O)N[C@@H](CCCCN)C(=O)N[C@@H](CCC(N)=O)C(=O)N[C@@H](CCCCN)C(=O)N[C@@H](CCCCN)C(=O)N[C@@H](CCCCN)C(=O)N[C@@H](CCC(=O)O)C(=O)N[C@@H](Cc2c[nH]c3ccccc23)C(=O)N[C@@H](CCCCN)C(=O)N[C@@H](C)C(=O)NCC(=O)N[C@@H](Cc2c[nH]cn2)C(=O)O)NC(=O)[C@H](C)NC(=O)[C@H](CCCCN)NC(=O)[C@H](Cc2ccccc2)NC(=O)[C@H](C(C)C)NC(=O)[C@H](CO)NC(=O)[C@H](CO)NC(=O)[C@H](Cc2c[nH]cn2)NC(=O)[C@H](Cc2c[nH]c3ccccc23)NC(=O)[C@H](CO)NC(=O)[C@H](CCCNC(=N)N)NC(=O)[C@H](Cc2ccc(O)cc2)NC(=O)[C@H](Cc2ccc(O)cc2)NC1=O [compound 72] (H-CDATCQFRKAIDDCYYRSWHSSVFKACMKQKKKEWKAGH-OH; disulfide 1-5, 14-27) | 0.01 to 1 | 0.01 to 1
CDATCQFRKAIDDCQKQAHHSNVPGSVFKACMKQKKKEFKAGQ (disulfide 1-5, 14-31) [compound 174] | 1 to 100 | 0.01 to 1
CDATCQFRKAIDDCYYRSWHANVPGSVFKACMKQKKKEWKAGY (disulfide 1-5, 14-31) [compound 66] | 0.01 to 1 | 0.01 to 1
CDATCQFRKAIDDCARQAHHSNVPGSVFKACMKQKKKEFKAG-NH2 (disulfide 1-5, 14-31) [compound 17] | 0.01 to 1 | < 0.01
CDATCQFRKAIDDCQKQAHHSNVPGSVFKLCMKQKKKEFKAG-NH2 (disulfide 1-5, 14-31) [compound 226] | 0.01 to 1 | 0.01 to 1
CDATCQFRKAIDDCQKQAYHSNVPGNSVFKECMKQKKKEFK-NH2 (disulfide 1-5, 14-32) [compound 306] | 1 to 100 | 1 to 100
CC[C@H](C)[C@H](NC(=O)[C@H](C)NC(=O)[C@H](CCCCN)NC(=O)[C@H](CCCNC(=N)N)NC(=O)[C@H](Cc1ccccc1)NC(=O)[C@H](CCC(N)=O)NC(=O)[C@@H]1CSSC[C@H](N)C(=O)N[C@@H](CC(=O)O)C(=O)N[C@@H](C)C(=O)N[C@@H]([C@@H](C)O)C(=O)N1)C(=O)N[C@@H](CC(=O)O)C(=O)N[C@@H](CC(=O)O)C(=O)N[C@H]1CSSC[C@@H](C(=O)N[C@@H](CCSC)C(=O)N[C@@H](CCCCN)C(=O)N[C@@H](CCC(N)=O)C(=O)N[C@@H](CCCCN)C(=O)N[C@@H](CCCCN)C(=O)N[C@@H](CCCCN)C(=O)N[C@@H](CCC(=O)O)C(=O)N[C@@H](Cc2ccccc2)C(=O)N[C@@H](CCCCN)C(=O)N[C@@H](C)C(=O)NCC(=O)N[C@@H](Cc2c[nH]cn2)C(=O)O)NC(=O)[C@H](C)NC(=O)[C@H](CCCCN)NC(=O)[C@H](Cc2ccccc2)NC(=O)[C@H](C(C)C)NC(=O)[C@H](CO)NC(=O)[C@H](CO)NC(=O)[C@H](Cc2c[nH]cn2)NC(=O)[C@H](Cc2c[nH]cn2)NC(=O)[C@H](C)NC(=O)[C@H](CCC(N)=O)NC(=O)[C@H](CCCNC(=N)N)NC(=O)[C@H](C)NC1=O [compound 36] (H-CDATCQFRKAIDDCARQAHHSSVFKACMKQKKKEFKAGH-OH; disulfide 1-5, 14-27) | 0.01 to 1 | 0.01 to 1
CDATCQFRKAIDDCAKQAHHSNVPGSVFKSCMKQKKKEFKAG-NH2 (disulfide 1-5, 14-31) [compound 31] | 0.01 to 1 | < 0.01
CDATCQFRKAIDDCYYRSHSNVPGSVFKACMKQKKKEFKAG-NH2 (disulfide 1-5, 14-30) [compound 42] | 0.01 to 1 | 0.01 to 1
CDATCQFRKAIDDCDRQAHHSNVPGSVFKACMKQKKKEFKAGH (disulfide 1-5, 14-31) [compound 155] | 1 to 100 | 0.01 to 1
CDATCQFRKAIDDCQKQAHHSNVPGSVFKACMKQKKKEFKAH (disulfide 1-5, 14-31) [compound 153] | 1 to 100 | 0.01 to 1
CC[C@H](C)[C@H](NC(=O)[C@H](C)NC(=O)[C@H](CCCCN)NC(=O)[C@H](CCCNC(=N)N)NC(=O)[C@H](Cc1ccccc1)NC(=O)[C@H](CCC(N)=O)NC(=O)[C@@H]1CSSC[C@H](N)C(=O)N[C@@H](CC(=O)O)C(=O)N[C@@H](C)C(=O)N[C@@H]([C@@H](C)O)C(=O)N1)C(=O)N[C@@H](CC(=O)O)C(=O)N[C@@H](CC(=O)O)C(=O)N[C@H]1CSSC[C@@H](C(=O)N[C@@H](CCSC)C(=O)N[C@@H](CCCCN)C(=O)N[C@@H](CCC(N)=O)C(=O)N[C@@H](CCCCN)C(=O)N[C@@H](CCCCN)C(=O)N[C@@H](CCCCN)C(=O)N[C@@H](CCC(=O)O)C(=O)N[C@@H](Cc2ccccc2)C(=O)N[C@@H](CCCCN)C(N)=O)NC(=O)[C@H](CCC(=O)O)NC(=O)[C@H](CCCCN)NC(=O)[C@H](Cc2ccccc2)NC(=O)[C@H](C(C)C)NC(=O)[C@H](CO)NC(=O)[C@H](CC(N)=O)NC(=O)CNC(=O)[C@@H]2CCCN2C(=O)[C@H](C(C)C)NC(=O)[C@H](CC(N)=O)NC(=O)[C@H](CO)NC(=O)[C@H](Cc2c[nH]cn2)NC(=O)[C@H](Cc2c[nH]cn2)NC(=O)[C@H](C)NC(=O)[C@H](CCC(N)=O)NC(=O)[C@H](CCCCN)NC(=O)[C@H](CC(=O)O)NC1=O [compound 295] | 1 to 100 | 0.01 to 1
CDATCQFRKAIDDCARQAHHSNVPGSVFKACMKQKKKEWKAGH-NH2 (disulfide 1-5, 14-31) [compound 2] | 0.01 to 1 | 0.01 to 1
CDATCQFRKAIDDCYYRSWHANVPGSVFKACMKQKKKEWKAG-NH2 (disulfide 1-5, 14-31) [compound 60] | 0.01 to 1 | 0.01 to 1
CDATCQFRKAIDDCQKQAHHSNVPGSVFKACVLQKKKEFKAG-NH2 (disulfide 1-5, 14-31) [compound 93] | 1 to 100 | 1 to 100
